From patent US4839355A, “Tricyclic-pyridinylquinoline compounds, their preparation and use” (Sterling Drug Inc., priority 1988, dated 1989)
≈ marks a conversion by molar mass, not a printed value. Like-named read-outs stand apart in the source and are kept apart here.

Legend:
Escherichia coli = test: In vitro antimicrobial activity, microplate dilution MIC, Escherichia coli; format: cell-based
Description: (§1) The in vitro antimicrobial activity of the compounds of the invention was determined by a microplate dilution procedure. Bacterial cultures were grown in Meuller Hintom II (cation supplemented) broth (S. aureus, S. faecalis, M. luteus, E. coli and P. aeruginosa), Brain Heart Infusion (BHI) broth supplemented with 10% heat inactivated horse serum (S. penumoniae) or BHI broth supplemented with 5 mcg/ml Hemin and 0.5 mcg/ml vitamin K (B. fragilis) at 37° C. for 18-24 hrs. The cultures were grown under aerobic conditions with the exception of B. fragilis which was grown 48 hrs. under anaerobic conditions (atmosphere 5% CO2, 10% H2 and 85% N2). Resulting suspensions were diluted 1/10 in the appropriate broth or used undiluted for the inoculum. Aqueous solutions of the compounds of the invention were solubilized in dimethylsulfoxide (DMSO) at the desired concentration and 200 mcl were dispensed into the first row of wells of a sterile microplate. The compounds were then serially diluted two-fold in DMSO to give a working stock concentration range plate. The last row of wells was left compound-free receiving only DMSO to serve as a growth control. Five mcl from each well of the working stock plate was transferred to corresponding wells of a separate plate containing 95 mcl/well of the appropriate broth. All dilutions were made with either an automated dilutor or manually. The wells of microplate containing the desired compound concentrations and compound-free growth controls in broth were then inoculated using the MIC 2000 inoculator which delivers 1.5 mcl/well to give a final inoculum level of 10^4 microorganism/well or 10^5 microorganism/ml. Plates were incubated as described above and read for visible growth. The minimal inhibitory concentration (MIC: expressed in mcg/ml) of each compound tested against each test microorganism was determined as the lowest concentration of compound which prevents visible microbial growth.

Streptococcus faecalis = test: In vitro antimicrobial activity, microplate dilution MIC, Streptococcus faecalis; format: cell-based; details: Enterococcus faecalis
Description: as §1

Pseudomonas aeruginosa = test: In vitro antimicrobial activity, microplate dilution MIC, Pseudomonas aeruginosa; format: cell-based; details: 10^5 microorganism/ml, read-out: MIC (minimal inhibitory concentration), PA
Description: as §1

Staph. aureus = test: In vivo antibacterial activity in female mice, Staph. aureus infection; parameters: species or system Staphylococcus aureus; details: mouse; for ED50: Staphylococcus aureus, 168 h, one-half hour postinfection, deaths over seven days
Description: (§2) The in vivo antibacterial activity of the compounds of the invention was determined in female mice, 18-20 grams each. Aqueous solutions of the compounds to be tested were prepared by dissolving the free acid form in dilute sodium hydroxide and diluting the solution with distilled water to the desired concentration.
(§3) Cultures of E. coli were grown in brain heart infusion broth, and the mice were inoculated intraperitoneally with 0.5 ml of the bacterial test inoculum suspended in saline. Cultures of Staph. aureus were thawed from frozen pooled stocks and mixed with 5% mucin. A 0.5 ml preparation was used to infect mice by i.p. inoculation.
(§4) The mice were medicated subcutaneously (sc) or orally (po) with 0.5 ml of the test compound solution one-half hour postinfection. Deaths were recorded daily for seven days. Fifty percent protective dose values (PD50) were calculated using probit analyis.

E. coli = test: In vivo antibacterial activity in female mice, E. coli infection; parameters: species or system Escherichia coli; details: mouse; for ED50: Escherichia coli, 168 h, one-half hour postinfection, deaths over seven days; for in vivo activity against E. coli compared with compounds P and Q: Table II
Description: as §2, §3, §4

Streptococcus pneumoniae = test: In vitro antimicrobial activity, microplate dilution MIC, Streptococcus pneumoniae; format: cell-based
Description: as §1

Staphylococcus aureus = test: In vitro antimicrobial activity, microplate dilution MIC, Staphylococcus aureus; format: cell-based; details: for MIC: Staphylococcus aureus, in vitro; for in vitro activity relative to compound P / in vitro activity relative to compound Q: from Table I MICs
Description: as §1

bacteria = test: In vitro antimicrobial activity, overall comparison over the bacterial panel; format: cell-based; details: for improved in vitro activity against named organisms / in vitro activity compared with prior art compounds P and Q: Table I MICs; for improved in vitro activity against named organisms: Staph. aureus, Strep. faecalis, Strep. pneumoniae
Description: as §1

Micrococcus luteus = test: In vitro antimicrobial activity, microplate dilution MIC, Micrococcus luteus; format: cell-based
Description: as §1

Bacteroides fragilis = test: In vitro antimicrobial activity, microplate dilution MIC, Bacteroides fragilis; format: cell-based
Description: as §1

[1] = Serum levels in monkeys after oral dosing; format: in vivo; details: 25 mg/kg oral
[2] = 10^5 microorganism/ml, read-out: MIC (minimal inhibitory concentration), EC
[3] = Streptococcus faecalis, 10^5 microorganism/ml, read-out: MIC (minimal inhibitory concentration), SF
[4] = po, read-out: PD50 (fifty percent protective dose), Staph. aureus, po
[5] = sc, read-out: PD50 (fifty percent protective dose), Staph. aureus, sc
[6] = po, read-out: PD50 (fifty percent protective dose), E. coli, po
[7] = sc, read-out: PD50 (fifty percent protective dose), E. coli, sc
[8] = 10^5 microorganism/ml, 10% horse serum in BHI broth, read-out: MIC (minimal inhibitory concentration), SP
[9] = 10^5 microorganism/ml, read-out: MIC (minimal inhibitory concentration), SA
[10] = 10^5 microorganism/ml, read-out: MIC (minimal inhibitory concentration), ML
[11] = 10^5 microorganism/ml, anaerobic, read-out: MIC (minimal inhibitory concentration), BF
[12] = Strep. pneumoniae, read-out: MIC

| SMILES | MIC (Escherichia coli; [2]) [µg/mL] | MIC (Streptococcus faecalis; [3]) [µg/mL] | MIC (Pseudomonas aeruginosa) [µg/mL] | ED50 (Staph. aureus; [4]) [mg/kg] | ED50 (Staph. aureus; [5]) [mg/kg] | ED50 (E. coli; [6]) [mg/kg] | ED50 (E. coli; [7]) [mg/kg] | in vivo activity against E. coli compared with compounds P and Q (E. coli) | MIC (Streptococcus pneumoniae; [8]) [µg/mL] | MIC (Staphylococcus aureus; [9]) [µg/mL] | MIC (Micrococcus luteus; [10]) [µg/mL] | MIC (Bacteroides fragilis; [11]) [µg/mL] | other results |
| --- | --- | --- | --- | --- | --- | --- | --- | --- | --- | --- | --- | --- | --- |
| Cc1cc(-c2c(F)c(F)c3c(=O)c(C(=O)O)cn4c3c2OC[C@@H]4C)cc(C)n1 [A, (S)-10-(2,6-Dimethyl-4-pyridinyl)-8,9-difluoro-3-methyl-7-oxo-2,3-dihydro-7H-pyrido[1,2,3-de][1,4]benzoxazine-6-carboxylic acid] | 0.125 (≈ 0.324 µM) | 0.125 (≈ 0.324 µM) | 8 (≈ 20.7 µM) | 0.13 | 0.05 | 12.3 | 4.7 | approximately equal in activity to compound Q and slightly less active than compound P against E. coli | 0.06 (≈ 0.155 µM) | 0.016 (≈ 0.0414 µM) | 1 (≈ 2.59 µM) | 1 (≈ 2.59 µM) | improved in vitro activity against named organisms (bacteria): improved activity against Staph. auerus, Strep. faecalis and Strip. pneumoniae |
| Cc1cc(-c2c(F)cc3c(=O)c(C(=O)O)cn4c3c2OC[C@@H]4C)cc(C)n1 [B, (S)-10-(2,6-Dimethyl-4-pyridinyl)-9-fluoro-3-methyl-7-oxo-2,3-dihydro-7H-pyrido[1,2,3-de][1,4]benzoxazine-6-carboxylic acid] | 0.03 (≈ 0.0814 µM) | 0.06 (≈ 0.163 µM) | 4 (≈ 10.9 µM) | 0.03 | 0.02 | 3 | 1.4 | approximately equal in activity to compound Q and slightly less active than compound P against E. coli | 0.03 (≈ 0.0814 µM) | 0.008 (≈ 0.0217 µM) | 0.25 (≈ 0.679 µM) | 0.25 (≈ 0.679 µM) | serum levels [1]: high and prolonged serum levels; half-life ([1]; monkey, serum): 960 min; Cmax ([1]; monkey, serum, read-out: maximum concentration (serum)): 25000 ng/mL; Tmax ([1]; monkey, serum, read-out: time of maximum concentration (serum)): 3.5 h; in vitro activity relative to compound P (Staphylococcus aureus; Staph. aureus): thirty times as active as compound P; in vitro activity relative to compound Q (Staphylococcus aureus; Staph. aureus): four times as active as compound Q; in vitro activity compared with prior art compounds P and Q (bacteria): substantilly more active than the prior art compounds (P and Q) against all of the organisms except E. coli and P. aeruginosa |
| CC[C@H]1COc2c(-c3cc(C)nc(C)c3)c(F)cc3c(=O)c(C(=O)O)cn1c23 [Compound C, (S)-10-(2,6-Dimethyl-4-pyridinyl)-9-fluoro-3-ethyl-7-oxo-2,3-dihydro-7H-pyrido[1,2,3-de][1,4]benzoxazine-6-carboxylic acid] | 0.016 (≈ 0.0418 µM) | 0.125 (≈ 0.327 µM) | 4 (≈ 10.5 µM) | 0.41 | 0.2 | 32.9 | 8.8 | – | 0.06 (≈ 0.157 µM) | < 0.004 | 0.5 (≈ 1.31 µM) | 0.5 (≈ 1.31 µM) | more active than compound P against Staph. aureus (Staph. aureus; subcutaneous): fifteen; more active than compound Q against Staph. aureus (Staph. aureus; subcutaneous): three times more active; improved in vitro activity against named organisms (bacteria): improved activity against Staph. auerus, Strep. faecalis and Strip. pneumoniae |
| Cc1cc(-c2c(F)cc3c(=O)c(C(=O)O)cn4c3c2SC[C@@H]4C)cc(C)n1 [D, (S)-10-(2,6-Dimethyl-4-pyridinyl)-9-fluoro-3-methyl-7-oxo-2,3-dihydro-7H-pyrido[1,2,3-de][1,4]benzothiazine-6-carboxylic acid] | 0.06 (≈ 0.156 µM) | 0.06 (≈ 0.156 µM) | 2 (≈ 5.2 µM) | 0.03 | 0.03 | 2.6 | 1.5 | approximately equal in activity to compound Q and slightly less active than compound P against E. coli | 0.016 (≈ 0.0416 µM) | 0.004 (≈ 0.0104 µM) | 0.06 (≈ 0.156 µM) | 0.06 (≈ 0.156 µM) | in vitro activity relative to compound P (Staphylococcus aureus; Staph. aureus): sixty times as active as compound P; in vitro activity relative to compound Q (Staphylococcus aureus; Staph. aureus): eight times as active as compound Q; in vitro activity compared with prior art compounds P and Q (bacteria): substantilly more active than the prior art compounds (P and Q) against all of the organisms except E. coli and P. aeruginosa |
| Cc1cc(-c2c(F)c(SCc3ccccc3)c3c(=O)c(C(=O)O)cn4c3c2OC[C@@H]4C)cc(C)n1 [Example 4, (S)-8-(Benzylthio)-10-(2,6-dimethyl-4-pyridinyl)-9-fluoro-3-methyl-7-oxo-2,3-dihydro-7H-pyrido[1,2,3-de][1,4]-benzoxazine-6-carboxylic acid] | – | – | – | – | – | – | – | – | – | – | – | – | MIC (Escherichia coli; E. coli, read-out: MIC): 8 µg/mL (≈ 16.3 µM); MIC (Streptococcus faecalis; Strep. faecalis, read-out: MIC): 32 µg/mL (≈ 65.2 µM); MIC (Streptococcus pneumoniae; [12]): 8 µg/mL (≈ 16.3 µM); MIC (Staphylococcus aureus; Staph. aureus, read-out: MIC): 1 µg/mL (≈ 2.04 µM); antibacterial activity in vitro (bacteria; in words): appreciable antibacterial activity in vitro; MIC (Micrococcus luteus; M. luteus, read-out: MIC): 32 µg/mL (≈ 65.2 µM); MIC (Bacteroides fragilis; B. fragilis, read-out: MIC): 32 µg/mL (≈ 65.2 µM) |
| CCOC(=O)c1cn2c3c(c(-c4cc(C)nc(C)c4)c(F)cc3c1=O)OC[C@H]2C [Example 6(e), Ethyl (R)-10-(2,6-dimethyl-4-pyridinyl)-9-fluoro-3-methyl-7-oxo-2,3-dihydro-7H-pyrido[1,2,3-de][1,4]benzoxazine-6-carboxylate] | – | – | – | – | – | – | – | – | – | – | – | – | MIC (Escherichia coli; E. coli, read-out: MIC): 1 µg/mL (≈ 2.52 µM); MIC (Streptococcus faecalis; Strep. faecalis, read-out: MIC): 4 µg/mL (≈ 10.1 µM); MIC (Streptococcus pneumoniae; [12]): 1 µg/mL (≈ 2.52 µM); MIC (Staphylococcus aureus; Staph. aureus, read-out: MIC): 0.25 µg/mL (≈ 0.631 µM); antibacterial activity in vitro (bacteria; in words): substantial antibacterial activity in vitro; in vitro activity compared with the (S)-isomer (compound B) (bacteria; in words): less active than the (S)-isomer (compound B); MIC (Bacteroides fragilis; B. fragilis, read-out: MIC): 16 µg/mL (≈ 40.4 µM) |
| CC1COc2c(N3CCN(C)CC3)c(F)cc3c(=O)c(C(=O)O)cn1c23 (stereo not shown) [P, 9-Fluoro-3-methyl-10-(4-methyl-1-piperazinyl)-7-oxo-2,3-dihydro-7H-pyrido[1,2,3-de][1,4]benzoxazine-6-carboxylic acid, reference compound] | 0.008 (≈ 0.0221 µM) | 2 (≈ 5.53 µM) | 0.5 (≈ 1.38 µM) | 6.5 | 3 | 1.17 | 0.48 | – | 0.25 (≈ 0.692 µM) | 0.25 (≈ 0.692 µM) | 2 (≈ 5.53 µM) | 0.5 (≈ 1.38 µM) | – |
| CCn1cc(C(=O)O)c(=O)c2cc(F)c(-c3cc(C)nc(C)c3)cc21 [Q, 7-(2,6-Dimethyl-4-pyridinyl)-1-ethyl-6-fluoro-1,4-dihydro-4-oxo-3-quinolinecarboxylic acid, reference compound] | 0.06 (≈ 0.176 µM) | 0.25 (≈ 0.735 µM) | 4 (≈ 11.8 µM) | 1.38 | 0.71 | 8.24 | 5.39 | – | 0.25 (≈ 0.735 µM) | 0.03 (≈ 0.0881 µM) | 0.5 (≈ 1.47 µM) | 2 (≈ 5.88 µM) | – |
